# Experimental data published in patent US12421225B2, “Heteroaromatic amide derivative and medicament containing the same” (KAKEN PHARMACEUTICAL CO., LTD., priority 2018, dated 2025).
# Biological target: human Nav1.7 (Homo sapiens (Human), UniProt Q15858)
# Test: Human Nav1.7 inhibitory activity evaluation (automated patch clamp QPatch16X, HEK293A cells stably expressing human Nav1.7 and human Navβ1)
# Format: cell-based
# Conditions: human Nav1.7, automated patch clamp
# Summary of the method: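 IC50 calculated from the concentration-response of inward current evoked by the second −10 mV, 50 ms depolarisation, which follows a 15 s conditioning step at roughly 30-40% inactivation and a 100 ms −120 mV interval. Cells: HEK293A expressing human Nav1.7/Navβ1, automated patch clamp, room temperature, 0.1% DMSO final.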
# Sequence of human Nav1.7 (Q15858 whole entry): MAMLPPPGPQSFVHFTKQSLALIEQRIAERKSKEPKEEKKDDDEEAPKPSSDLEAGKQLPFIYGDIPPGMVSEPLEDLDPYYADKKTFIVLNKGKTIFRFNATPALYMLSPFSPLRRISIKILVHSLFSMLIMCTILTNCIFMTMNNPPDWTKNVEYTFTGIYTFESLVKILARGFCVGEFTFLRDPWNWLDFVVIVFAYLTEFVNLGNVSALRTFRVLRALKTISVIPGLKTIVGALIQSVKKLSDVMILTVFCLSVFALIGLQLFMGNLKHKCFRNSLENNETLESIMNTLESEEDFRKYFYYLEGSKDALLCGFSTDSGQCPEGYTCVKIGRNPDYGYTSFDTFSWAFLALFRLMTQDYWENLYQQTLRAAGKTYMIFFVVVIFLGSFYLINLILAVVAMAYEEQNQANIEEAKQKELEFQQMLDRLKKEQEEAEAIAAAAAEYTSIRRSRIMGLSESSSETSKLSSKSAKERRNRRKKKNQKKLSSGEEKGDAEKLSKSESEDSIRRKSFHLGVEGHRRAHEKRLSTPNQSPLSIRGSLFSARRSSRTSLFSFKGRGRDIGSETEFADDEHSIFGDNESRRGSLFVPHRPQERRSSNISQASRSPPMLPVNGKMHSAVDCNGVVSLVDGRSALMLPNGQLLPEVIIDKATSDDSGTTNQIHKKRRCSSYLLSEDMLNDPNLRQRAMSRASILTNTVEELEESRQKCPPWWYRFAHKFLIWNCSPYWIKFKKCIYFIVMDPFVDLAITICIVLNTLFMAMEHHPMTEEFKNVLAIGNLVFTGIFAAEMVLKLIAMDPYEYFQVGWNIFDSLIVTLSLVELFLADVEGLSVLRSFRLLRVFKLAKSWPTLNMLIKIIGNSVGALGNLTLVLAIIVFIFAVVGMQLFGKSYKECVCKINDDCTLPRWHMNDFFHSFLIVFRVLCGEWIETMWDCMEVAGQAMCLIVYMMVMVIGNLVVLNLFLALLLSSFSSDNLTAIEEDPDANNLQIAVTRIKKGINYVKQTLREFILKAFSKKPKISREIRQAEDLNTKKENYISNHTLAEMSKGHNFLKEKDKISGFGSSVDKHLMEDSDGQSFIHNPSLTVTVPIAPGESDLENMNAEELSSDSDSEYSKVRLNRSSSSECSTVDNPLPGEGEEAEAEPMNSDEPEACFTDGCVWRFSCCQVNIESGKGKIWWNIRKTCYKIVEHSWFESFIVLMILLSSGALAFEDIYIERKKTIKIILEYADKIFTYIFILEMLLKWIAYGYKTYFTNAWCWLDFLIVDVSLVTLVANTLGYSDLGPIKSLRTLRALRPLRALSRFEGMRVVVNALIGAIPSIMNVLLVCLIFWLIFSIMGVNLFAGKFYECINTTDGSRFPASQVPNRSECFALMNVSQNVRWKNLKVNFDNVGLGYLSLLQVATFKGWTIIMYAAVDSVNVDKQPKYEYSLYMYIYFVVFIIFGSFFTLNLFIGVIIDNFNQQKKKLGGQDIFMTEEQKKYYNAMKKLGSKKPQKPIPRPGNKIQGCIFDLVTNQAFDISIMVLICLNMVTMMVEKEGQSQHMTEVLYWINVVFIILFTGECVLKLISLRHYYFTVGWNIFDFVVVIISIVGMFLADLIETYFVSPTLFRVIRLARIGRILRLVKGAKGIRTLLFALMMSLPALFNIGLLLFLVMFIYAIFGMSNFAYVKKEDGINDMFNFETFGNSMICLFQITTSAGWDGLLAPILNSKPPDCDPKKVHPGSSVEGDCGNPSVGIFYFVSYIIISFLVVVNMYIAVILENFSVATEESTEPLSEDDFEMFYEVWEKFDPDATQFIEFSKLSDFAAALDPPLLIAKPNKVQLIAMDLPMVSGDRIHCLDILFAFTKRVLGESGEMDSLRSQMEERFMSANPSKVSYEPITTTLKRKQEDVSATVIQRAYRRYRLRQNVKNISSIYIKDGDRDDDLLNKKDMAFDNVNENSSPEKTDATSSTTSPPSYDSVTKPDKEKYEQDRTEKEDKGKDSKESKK
# Sequence of human Nav1.7 (Q07699 19-218 partner): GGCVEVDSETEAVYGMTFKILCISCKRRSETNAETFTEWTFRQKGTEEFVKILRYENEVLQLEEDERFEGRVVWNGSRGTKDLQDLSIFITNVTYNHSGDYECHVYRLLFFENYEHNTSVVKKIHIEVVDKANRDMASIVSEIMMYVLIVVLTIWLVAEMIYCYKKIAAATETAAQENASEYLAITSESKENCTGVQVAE
row,SMILES,IC50
1,O=C(N[C@H]1COc2ccc(COCC(F)(F)F)cc2C1)c1cc2n(n1)CCC(C1CCOC1)O2 (some centres unmarked) [Example 630],< 1000 nM
2,O=C(N[C@H]1COc2ccc(COCC(F)(F)F)cc2C1)c1cc2n(n1)CCC(C1COCCO1)O2 (some centres unmarked) [Example 631],< 1000 nM
3,O=C(N[C@H]1COc2ccc(COCC(F)(F)F)cc2C1)c1cc2n(n1)CCC(C(F)(F)F)CO2 (some centres unmarked) [Example 632],< 1000 nM
4,O=C(N[C@H]1COc2ccc(CC(F)F)cc2C1)c1cc2n(n1)CCC(C(F)(F)F)CO2 (some centres unmarked) [Example 633],< 1000 nM
5,O=C(N[C@H]1COc2ccc(C(F)(F)F)cc2C1F)c1cc2n(n1)CCC(COCC(F)(F)F)CO2 (some centres unmarked) [Example 634],< 1000 nM
6,O=C(N[C@H]1COc2ccc(COCC(F)(F)F)cc2C1)c1cc2n(n1)CCC(COCC(F)F)O2 (some centres unmarked) [Example 635],< 1000 nM
7,O=C(N[C@H]1COc2ccc(C(F)(F)F)cc2C1F)c1cc2n(n1)CCN(C1CCOCC1)C2 (some centres unmarked) [Example 637],< 10000 nM
8,O=C(N[C@H]1COc2ccc(COCC(F)(F)F)cc2C1)c1cc2n(n1)CCC(C1COCCO1)O2 (some centres unmarked) [Example 638],< 10000 nM
9,O=C(NC1COc2ccc(F)c(F)c2C1)c1cc2n(n1)CC(CCOCC1CC1)O2 (centres unmarked) [Example 639],< 1000 nM
10,O=C(NC1COc2ccc(F)c(F)c2C1)c1cc2n(n1)CC(CCCOCC(F)F)O2 (centres unmarked) [Example 640],< 1000 nM
11,O=C(N[C@H]1COc2ccc(C(F)(F)F)cc2C1F)c1cc2n(n1)CCN(CC1CCOCC1)C2 (some centres unmarked) [Example 642],< 10000 nM
12,O=C(N[C@H]1COc2ccc(C(F)(F)F)cc2C1F)c1cc2n(n1)CCN(C1COC1)C2 (some centres unmarked) [Example 643],< 10000 nM
13,O=C(N[C@H]1COc2ccc(C(F)(F)F)cc2C1)c1cc2n(n1)CCN(CCOCC(F)(F)F)C2 [Example 644],< 1000 nM
14,O=C(N[C@H]1COc2ccc(C(F)(F)F)cc2C1F)c1cc2n(n1)CCN(CCOCC(F)(F)F)C2 (some centres unmarked) [Example 645],< 1000 nM
15,O=C(N[C@H]1COc2ccc(C(F)(F)F)cc2C1F)c1cc2n(n1)CCN(CC1CCO1)C2 (some centres unmarked) [Example 646],< 1000 nM
16,O=C(N[C@H]1COc2ccc(C(F)(F)F)cc2C1F)c1cc2n(n1)CCN(CCC(F)(F)F)C2 (some centres unmarked) [Example 647],< 1000 nM
17,N#Cc1ccc2c(c1)C(F)[C@@H](NC(=O)c1cc3n(n1)CCC(C(F)(F)F)O3)CO2 (some centres unmarked) [Example 648],< 10000 nM
18,N#Cc1ccc2c(c1)C(F)[C@@H](NC(=O)c1cc3n(n1)CCC(C(F)(F)F)CO3)CO2 (some centres unmarked) [Example 649],< 10000 nM
19,N#Cc1ccc2c(c1)C(F)[C@@H](NC(=O)c1cc3n(n1)CC(CCOCC1CC1)O3)CO2 (some centres unmarked) [Example 650],< 1000 nM
20,O=C(N[C@H]1COc2ccc(COCC(F)(F)F)cc2C1)c1cc2n(n1)CCC(C1CCCO1)O2 (some centres unmarked) [Example 651],< 1000 nM
21,O=C(N[C@H]1COc2ccc(C(F)(F)F)cc2C1O)c1cc2n(n1)CCN(CCOCC1CC1)C2 (some centres unmarked) [Example 652],< 10000 nM
22,O=C(N[C@H]1COc2ccc(C(F)(F)F)cc2C1)c1cc2n(n1)CCN(CC1CCOCC1)C2 [Example 653],< 10000 nM
23,O=C(N[C@H]1COc2ccc(C(F)(F)F)cc2C1F)c1cc2n(n1)CCN(CCOCC1CC1)C2 (some centres unmarked) [Example 654],< 1000 nM
24,O=C(N[C@H]1COc2ccc(COCC(F)(F)F)cc2C1)c1cc2n(n1)CCC(CC1CCOCC1)O2 (some centres unmarked) [Example 655],< 1000 nM
25,CCC1(O)CCn2nc(C(=O)N[C@H]3COc4ccc(C(F)(F)F)cc4C3F)cc2OC1 (some centres unmarked) [Example 656],< 10000 nM

row,SMILES,IC50
1,O=C(N[C@H]1COc2ccc(C(F)(F)F)cc2C1)c1cc2n(n1)CC(COCCOCC(F)(F)F)O2 (some centres unmarked) [Example 657],< 1000 nM
2,O=C(N[C@H]1COc2ccc(Cl)cc2C1)c1cc2n(n1)CC(COCCOCC(F)(F)F)O2 (some centres unmarked) [Example 658],< 1000 nM
3,N#Cc1ccc2c(c1)C[C@@H](NC(=O)c1cc3n(n1)CC(COCCOCC(F)(F)F)O3)CO2 (some centres unmarked) [Example 659],< 10000 nM
4,O=C(N[C@H]1COc2ccc(C(F)(F)F)cc2C1O)c1cc2n(n1)CC(COCCOCC(F)(F)F)O2 (some centres unmarked) [Example 660],< 10000 nM
5,O=C(N[C@H]1COc2ccc(COCC(F)(F)F)cc2C1)c1cc2n(n1)CC(COCCOCC(F)(F)F)O2 (some centres unmarked) [Example 661],< 1000 nM
6,O=C(N[C@H]1COc2ccc(Cl)cc2C1)c1cc2n(n1)CCC(COCCOCC(F)(F)F)O2 (some centres unmarked) [Example 662],< 1000 nM
7,O=C(N[C@H]1COc2ccc(C(F)(F)F)cc2C1)c1cc2n(n1)CCC(COCCOCC(F)(F)F)O2 (some centres unmarked) [Example 663],< 1000 nM
8,N#Cc1ccc2c(c1)C[C@@H](NC(=O)c1cc3n(n1)CCC(COCCOCC(F)(F)F)O3)CO2 (some centres unmarked) [Example 664],< 10000 nM
9,O=C(N[C@H]1COc2ccc(C(F)(F)F)cc2C1F)c1cc2n(n1)CCC(COCCOCC(F)(F)F)O2 (some centres unmarked) [Example 665],< 1000 nM
10,O=C(N[C@H]1COc2ccc(C(F)(F)F)cc2C1)c1cc2n(n1)CCN(CCOCC(F)F)C2 [Example 666],< 10000 nM
11,O=C(N[C@H]1COc2ccc(COCC(F)(F)F)cc2C1)c1cc2n(n1)CCN(CCOCC(F)(F)F)C2 [Example 667],< 1000 nM
12,O=C(N[C@H]1COc2ccc(CC(F)F)cc2C1)c1cc2n(n1)CCC(C1CCCO1)O2 (some centres unmarked) [Example 668],< 10000 nM
13,O=C(N[C@H]1COc2ccc(C(F)(F)F)cc2C1)c1cc2n(n1)CCN(CC1CCOC1)C2 (some centres unmarked) [Example 669],< 10000 nM
14,O=C(N[C@H]1COc2ccc(C(F)(F)F)cc2C1F)c1cc2n(n1)CCN(C1CCOC1)C2 (some centres unmarked) [Example 670],< 1000 nM
15,CC(C)OCCN1CCn2nc(C(=O)N[C@H]3COc4ccc(C(F)(F)F)cc4C3F)cc2C1 (some centres unmarked) [Example 671],< 1000 nM
16,O=C(N[C@H]1COc2ccc(C(F)(F)F)cc2C1F)c1cc2n(n1)CCN(CC1CCCOC1)C2 (some centres unmarked) [Example 672],< 1000 nM
17,O=C(N[C@H]1COc2ccc(C(F)(F)F)cc2C1F)c1cc2n(n1)CCN(CC1CCOC1)C2 (some centres unmarked) [Example 673],< 1000 nM
18,O=C(N[C@H]1COc2ccc(CC(F)F)cc2C1)c1cc2n(n1)CCC(CC1CCOCC1)O2 (some centres unmarked) [Example 674],< 10000 nM
19,O=C(N[C@H]1COc2ccc(C(F)(F)F)cc2C1F)c1cc2n(n1)CC(COCCOCC(F)(F)F)O2 (some centres unmarked) [Example 676],< 1000 nM
20,O=C(N[C@H]1COc2ccc(C(F)(F)F)cc2C1O)c1cc2n(n1)CCN(CCOCC(F)(F)F)C2 (some centres unmarked) [Example 677],< 10000 nM
21,O=C(N[C@H]1COc2ccc(C(F)(F)F)cc2C1F)c1cc2n(n1)CCN(CCOCC(F)F)C2 (some centres unmarked) [Example 678],< 1000 nM
22,O=C(N[C@H]1COc2ccc(C(F)(F)F)cc2C1F)c1cc2n(n1)CCC(OCC(F)(F)F)CO2 (some centres unmarked) [Example 679],< 1000 nM
23,O=C(N[C@H]1COc2ccc(C(F)(F)F)cc2C1)c1cc2n(n1)CCC(OCCOCC(F)(F)F)CO2 (some centres unmarked) [Example 680],< 10000 nM
24,O=C(N[C@H]1COc2ccc(Cl)cc2C1)c1cc2n(n1)CCC(OCCOCC(F)(F)F)CO2 (some centres unmarked) [Example 682],< 10000 nM

# Biological target: human Nav1.5 (Homo sapiens (Human), UniProt Q14524)
# Sequence (Q14524 whole entry): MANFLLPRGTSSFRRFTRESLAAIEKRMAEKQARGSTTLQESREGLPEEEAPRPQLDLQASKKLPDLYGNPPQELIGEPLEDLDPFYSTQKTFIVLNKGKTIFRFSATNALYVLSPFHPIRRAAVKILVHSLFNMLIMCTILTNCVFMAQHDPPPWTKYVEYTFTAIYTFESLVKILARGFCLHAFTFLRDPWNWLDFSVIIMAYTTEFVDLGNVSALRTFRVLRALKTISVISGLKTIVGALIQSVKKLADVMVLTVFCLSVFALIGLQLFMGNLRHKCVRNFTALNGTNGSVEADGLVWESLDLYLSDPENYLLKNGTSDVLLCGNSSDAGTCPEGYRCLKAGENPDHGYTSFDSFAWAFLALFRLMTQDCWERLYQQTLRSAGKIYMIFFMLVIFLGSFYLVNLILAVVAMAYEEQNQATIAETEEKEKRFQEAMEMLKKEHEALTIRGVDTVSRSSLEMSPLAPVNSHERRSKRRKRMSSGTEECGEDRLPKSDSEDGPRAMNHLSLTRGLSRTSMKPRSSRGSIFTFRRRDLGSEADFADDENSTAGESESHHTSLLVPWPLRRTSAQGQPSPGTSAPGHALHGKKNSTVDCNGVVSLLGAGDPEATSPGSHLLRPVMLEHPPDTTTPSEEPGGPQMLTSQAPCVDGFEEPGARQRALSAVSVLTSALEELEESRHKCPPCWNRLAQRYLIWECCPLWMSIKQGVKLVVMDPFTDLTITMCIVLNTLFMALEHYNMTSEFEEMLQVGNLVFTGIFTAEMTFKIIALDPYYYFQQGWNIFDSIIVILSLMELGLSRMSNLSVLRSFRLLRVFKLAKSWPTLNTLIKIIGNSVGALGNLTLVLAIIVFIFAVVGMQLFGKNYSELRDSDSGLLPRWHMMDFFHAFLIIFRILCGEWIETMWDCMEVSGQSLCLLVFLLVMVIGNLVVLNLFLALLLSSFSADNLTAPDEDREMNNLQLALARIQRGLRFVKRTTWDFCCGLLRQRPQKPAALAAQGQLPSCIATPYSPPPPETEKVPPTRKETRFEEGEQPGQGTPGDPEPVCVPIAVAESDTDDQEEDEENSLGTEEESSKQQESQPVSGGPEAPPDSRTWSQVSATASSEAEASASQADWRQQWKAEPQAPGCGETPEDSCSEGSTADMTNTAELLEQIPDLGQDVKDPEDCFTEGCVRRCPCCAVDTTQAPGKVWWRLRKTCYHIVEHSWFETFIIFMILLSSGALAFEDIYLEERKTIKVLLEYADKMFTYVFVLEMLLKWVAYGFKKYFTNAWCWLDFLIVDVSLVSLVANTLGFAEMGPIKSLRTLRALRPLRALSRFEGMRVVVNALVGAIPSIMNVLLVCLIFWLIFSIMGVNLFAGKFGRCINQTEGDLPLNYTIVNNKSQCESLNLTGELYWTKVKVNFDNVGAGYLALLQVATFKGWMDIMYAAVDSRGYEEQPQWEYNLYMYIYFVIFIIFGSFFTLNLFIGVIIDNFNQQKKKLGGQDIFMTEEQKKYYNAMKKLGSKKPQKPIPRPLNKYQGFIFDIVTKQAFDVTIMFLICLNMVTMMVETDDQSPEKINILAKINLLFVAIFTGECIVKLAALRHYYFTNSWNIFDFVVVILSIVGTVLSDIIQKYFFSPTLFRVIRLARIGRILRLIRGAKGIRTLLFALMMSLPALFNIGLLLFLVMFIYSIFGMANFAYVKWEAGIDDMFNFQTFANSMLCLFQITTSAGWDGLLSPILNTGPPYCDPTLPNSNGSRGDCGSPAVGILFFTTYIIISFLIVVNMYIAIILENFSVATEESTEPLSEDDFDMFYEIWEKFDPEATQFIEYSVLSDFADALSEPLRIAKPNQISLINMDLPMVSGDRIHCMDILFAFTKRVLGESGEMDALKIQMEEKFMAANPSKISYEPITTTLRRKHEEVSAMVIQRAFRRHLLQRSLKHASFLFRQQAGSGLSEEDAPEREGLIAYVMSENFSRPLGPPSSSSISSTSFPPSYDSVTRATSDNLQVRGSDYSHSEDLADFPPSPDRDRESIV
# Test: Human Nav1.5 inhibitory activity evaluation (automated patch clamp QPatch16X, HEK293 cells stably expressing human Nav1.5)
# Format: cell-based
# Conditions: HEK293 cells stably expressing human Nav1.5, automated patch clamp QPatch16X
# Protocol: Test Example 2: Human Nav1.5 Inhibitory Activity Evaluation
# A cell line in which human Nav1.5 was stably expressed in HEK293 cells was used. DMEM supplemeted with 15% fetal bovine serum, 500 μg/ml geneticin, 100 units/ml penicillin, 100 μg/ml streptomycin, 20 mM HEPES was used as culture medium under the conditions of 37° C. and 5% CO2 in T175 flasks to carry out culturing. When 60-80% confluence was reached, a cell suspension of about 0.5-5.0×10^6 cells/mL was prepared. The amount of current through human Nav1.5 was recorded using a fully automatic patch clamp device QPatch16X at room temperature. As the extracellular solution, 145 mM NaCl, 4 mM KCl, 1 mM MgCl2, 2 mM CaCl2, 10 mM Glucose, and 10 mM HEPES at pH 7.4 was used. As the intracellular solution, 135 mM CsF, ⅕ mM EGTA/CsOH, 10 mM HEPES, and 10 mM NaCl at pH 7.3 was used. The test compounds were dissolved in DMSO and diluted with the extracellular solution to attend the DMSO concentration of 0.1% at the time of assay.
# The current response was obtained at a sampling frequency of 25 kHz, and noise was removed with a 3 kHz low-pass filter. The holding potential was −80 mV. Correction of the leakage current was carried out by applying a step pulse of −100 mV before the test pulse. In order to investigate human Nav1.5 inhibitory effect of the test compound, test pulses imitating the action potential of cardiomyocytes were continuously given 20 times. The test pulses were given before and after the test compound addition.
# The inhibitory activity of the test compound was determined based on the amount of inward current generated by the 20th depolarization pulse, and the 50% inhibitory concentration (IC50) was calculated from the concentration-response curve.
row,SMILES,IC50
1,"CCCC1CCn2nc(C(=O)N[C@H]3COc4ccc(C#N)cc4C3)cc2O1 (single isomer, unassigned) [95 (isomer B)]",≥ 3000 nM
2,"N#Cc1ccc2c(c1)C[C@@H](NC(=O)c1cc3n(n1)CCC(CC1CC1)O3)CO2 (single isomer, unassigned) [97 (isomer B)]",≥ 3000 nM
3,"O=C(N[C@H]1COc2ccc(-c3ccccn3)cc2C1)c1cc2n(n1)CCC(COCC1CC1)O2 (single isomer, unassigned) [111 (isomer B)]",1000 to 3000 nM
4,"O=C(N[C@H]1COc2ccc(CC(F)F)cc2C1)c1cc2n(n1)CCC(COCC(F)(F)F)O2 (single isomer, unassigned) [127 (isomer B)]",≥ 3000 nM

# Same assay, conditions: human Nav1.5, automated patch clamp
row,SMILES,IC50
1,"O=C(N[C@H]1COc2ccc(CC(F)F)cc2C1)c1cc2n(n1)CCC(CCOC(F)F)O2 (single isomer, unassigned) [148 (isomer B)]",≥ 3000 nM
2,"O=C(N[C@H]1COc2ccc(COCC(F)(F)F)cc2C1)c1cc2n(n1)CCC(CCOC(F)F)O2 (single isomer, unassigned) [150 (isomer B)]",1000 to 3000 nM
3,"O=C(N[C@H]1COc2ccc(Cl)cc2C1)c1cc2n(n1)CCC(CNCC(F)(F)F)O2 (single isomer, unassigned) [152 (isomer B)]",≥ 3000 nM
4,"Cn1ccc(-c2ccc3c(c2)C[C@@H](NC(=O)c2cc4n(n2)CC(CCOCC(F)(F)F)O4)CO3)n1 (single isomer, unassigned) [206 (isomer B)]",≥ 3000 nM
5,"O=C(N[C@H]1COc2ccc(CC(F)F)cc2C1)c1cc2n(n1)CC(CCOC(F)(F)F)O2 (single isomer, unassigned) [211 (isomer B)]",< 1000 nM
6,"N#Cc1ccc2c(c1)C[C@@H](NC(=O)c1cc3n(n1)CC(CCCOC(F)(F)F)O3)CO2 (single isomer, unassigned) [247 (isomer B)]",1000 to 3000 nM
